The structures appear in SMILES notation. Where a name gives a salt, the structure may show the parent alone. Some results are limits rather than exact numbers.

Series [1] is described as follows: Metabolic stability in human liver microsomes, unbound intrinsic clearance (Cl int/fu mic). It counts as in vitro ADME. Particulars: human, liver microsomes, pH 7.4, human liver microsomes 0.25 mg/mL, 0.5 μM compound, NADPH, read-out: Cl int, mic unb. (h) [l/h/kg] (unbound intrinsic clearance, human). On the procedure:
Samples of the tested compounds (0.5 μM) were preincubated together with human liver microsomes (0.25 mg of microsomal protein/mL) in 0.05 M potassium phosphate buffer of pH 7.4 in microtiter plates at 37° C. for 5 minutes. The reaction was started by adding NADPH (1.0 mM). After 0, 5, 10, 15, 20 and 30 minutes, an aliquot was removed, the reaction was cooled and stopped by adding twice the amount of quench solution consisting of acetonitrile/methanol 1:1, and containing 0.2 μM carbutamide as internal standard. The samples were frozen until analyzed. The remaining concentration of undegraded test substance was determined by liquid chromatography-tandem mass spectrometry (LC-MS/MS). The half-life (t1/2) was determined from the gradient of the ratio of the signal of (test substance/internal standard)/unit time plot, allowing the calculation of the half-life of the test substance, assuming first order kinetics, from the decrease in the concentration of the compound with time. The microsomal clearance ([…]) was calculated as follows: […]=((ln(2)/t 1⁄2)/Microsomal Protein Concentration (mg/ml))*1000, leading to the unit of uL/min/mg. The scaled clearance (mClin_scaled) was calculated as […]_scaled=m CLint*(Microsomal Yield (mg/kg BW))/1000000*60, leading to the units L/h/kg. The Microsomal Yield is defined by the specifics of the used microsomes. Calculations were modified from references: Di, The Society for Biomolecular Screening, 2003, 453-462; Obach, D M D, 1999 vol 27. N 11, 1350-1359. A suspension of 0.25 mg/ml microsomal protein spiked with 0.5 μM of test compound was pipetted on one side of a HTDialysis device (HTDialysis LLC, 37 Ledgewood Drive, Gales Fery CT 06335) separated by a membrane with a MWcut off 12-14 K. 50 mM K-Phosphate buffer (pH 7.4) was added on the other side of the well. After incubation at 37° C. for 4 h while shaking at 150 rpm, aliquots of both sides were taken, quenched with MeOH/ACN 1:1 and 0.2 μM of internal standard and frozen until analysis by LCMSMS Cl int unbound=Cl int/fu mic

The target in a further series is T1, 5-HT2C receptor (Homo sapiens, UniProt P28335).
T1 construct: host or cells: U2OS
T1 sequence (P28335 33-458): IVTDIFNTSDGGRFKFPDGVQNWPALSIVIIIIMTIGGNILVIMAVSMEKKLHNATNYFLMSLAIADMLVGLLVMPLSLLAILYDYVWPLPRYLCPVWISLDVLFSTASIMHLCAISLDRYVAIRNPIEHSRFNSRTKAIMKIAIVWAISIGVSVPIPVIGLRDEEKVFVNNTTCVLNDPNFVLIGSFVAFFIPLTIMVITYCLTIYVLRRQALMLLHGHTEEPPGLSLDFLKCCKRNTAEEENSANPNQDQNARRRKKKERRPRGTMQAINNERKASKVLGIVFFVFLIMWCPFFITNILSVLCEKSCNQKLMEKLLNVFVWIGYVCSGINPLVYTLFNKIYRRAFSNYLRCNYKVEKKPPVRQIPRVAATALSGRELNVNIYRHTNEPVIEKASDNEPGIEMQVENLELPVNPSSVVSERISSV
T1 sequence (P32121 whole entry partner): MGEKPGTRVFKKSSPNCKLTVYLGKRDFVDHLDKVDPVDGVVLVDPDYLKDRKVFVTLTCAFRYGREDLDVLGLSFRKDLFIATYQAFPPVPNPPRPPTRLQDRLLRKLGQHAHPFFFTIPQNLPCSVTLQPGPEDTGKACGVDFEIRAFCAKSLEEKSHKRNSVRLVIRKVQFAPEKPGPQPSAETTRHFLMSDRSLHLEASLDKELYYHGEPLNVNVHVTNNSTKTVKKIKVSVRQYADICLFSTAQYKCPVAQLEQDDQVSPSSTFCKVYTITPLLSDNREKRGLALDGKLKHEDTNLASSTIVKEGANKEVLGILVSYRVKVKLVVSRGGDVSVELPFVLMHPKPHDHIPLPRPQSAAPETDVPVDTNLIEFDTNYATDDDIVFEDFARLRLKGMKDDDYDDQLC
In words: Human 5-HT2C functional assay (beta-arrestin2 recruitment, U2OS_HTR2C_β-Arrestin cells). Particulars: for EC50: beta-arrestin2 recruitment, U2OS_HTR2C_β-Arrestin cells, 1.5 h incubation, read-out: EC50 5-HT2C (potency in functional assay); for Emax: relative efficacy vs response to 10 μM 5-HT or maximal 5-HT effect (100%). It counts as cell-based. The method, boiled down:
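EC50 and relative efficacy came from 4-parameter variable-slope fits, normalised to 10 µM 5-HT or maximal 5-HT response (100%). Luminescent β-galactosidase enzyme-complementation signal was read after 1.5 h compound exposure in U2OS_HTR2C_β-Arrestin cells held in 1% serum medium from the prior day.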

On to `COc1nc(OC2CCCC(F)(F)C2)c(F)cc1CNC(=O)[C@@H]1CCCN1` (stereo partly drawn) [Example 58, (2S)—N-[[6-(3,3-Difluorocyclohexoxy)-5-fluoro-2-methoxy-3-pyridyl]methyl]-pyrrolidine-2-carboxamide; 2,2,2-trifluoroacetic Acid], for which, in series [1], the CLint scaled at 0.5 μM was less than 5 L/h/kg. Further, on 5-HT2C receptor, the concentration for a half-maximal effect (EC50) was less than 20 nM and the Emax is greater than 70%.
For `COc1nc(N2CCC(F)(F)C(C(F)F)C2)c(F)cc1CNC(=O)[C@@H]1CCCN1` (stereo partly drawn) [Example 190, (2S)—N-[[6-[3-(Difluoromethyl)-4,4-difluoro-1-piperidyl]-5-fluoro-2-methoxy-3-pyridyl]methyl]pyrrolidine-2-carboxamide Hydrochloride], the CLint scaled at 0.5 μM in series [1] was less than 5 L/h/kg. For the same compound, on 5-HT2C receptor, the EC50 is less than 20 nM and the maximal effect (Emax) was greater than 70%.
The corresponding values for `COc1nc(OC2CC3C(C2)C3(F)F)c(F)cc1CNC(=O)[C@@H]1CCCN1` (stereo partly drawn) [Example 54, (2S)—N-[[6-[(6,6-Difluoro-3-bicyclo[3.1.0]hexanyl)oxy]-5-fluoro-2-methoxy-3-pyridyl]methyl]pyrrolidine-2-carboxamide 2,2,2-trifluoroacetic Acid] are less than 5 L/h/kg, less than 20 nM and greater than 70%.
As for `Cc1nc(OC2CCC(C(F)(F)F)CC2)ccc1CNC(=O)C1CCCN1` [Example 65, (S)—N-((2-Methyl-6-(((1R,4S)-4-(trifluoromethyl)cyclohexyl)oxy)pyridin-3-yl)methyl)pyrrolidine-2-carboxamide], in series [1], the CLint scaled at 0.5 μM was less than 5 L/h/kg. Further, at 5-HT2C receptor, the 50% effective concentration (EC50) was 20 to 200 nM and the maximal response (Emax) lay within 50 to 70%.
Taken in the same sequence, the figures for `COc1nc(OCC2CCC(F)(F)C2)c(F)cc1CNC(=O)[C@@H]1CCCN1C` (stereo partly drawn) [Example 7, (2S)—N-[[6-[(3,3-Difluorocyclopentyl)methoxy]-5-fluoro-2-methoxy-3-pyridyl]-methyl]-1-methyl-pyrrolidine-2-carboxamide; Fumaric Acid] were less than 5 L/h/kg, less than 20 nM and greater than 70%.
On to `COc1nc(OC2CCC(F)(F)CC2)cnc1CNC(=O)[C@@H]1CCCN1` [Example 108, (2S)—N-[[5-(4,4-Difluorocyclohexoxy)-3-methoxy-pyrazin-2-yl]methyl]pyrrolidine-2-carboxamide; 2,2,2-trifluoroacetic Acid], for which the CLint scaled at 0.5 μM in series [1] is less than 5 L/h/kg. On 5-HT2C receptor, the EC50 is 20 to 200 nM and the maximal response (Emax) is greater than 70%.
Consider `COCCCc1nc(OC)c(CNC(=O)[C@@H]2CCCN2)cc1F` [Example 168, (2S)—N-[[5-Fluoro-2-methoxy-6-(3-methoxypropyl)-3-pyridyl]methyl]pyrrolidine-2-carboxamide], for which the CLint scaled at 0.5 μM in series [1] was less than 5 L/h/kg. Besides, at 5-HT2C receptor, the 50% effective concentration (EC50) was 200 to 1000 nM and the maximum response (Emax) is greater than 70%.
The corresponding values for `COc1nc(O[C@H]2CC[C@@H](C(F)(F)F)CC2)c(F)cc1CNC(=O)[C@@H]1CCCN1C` [Example 19, (2S)—N-[[5-Fluoro-2-methoxy-6-[cis-4-(trifluoromethyl)cyclohexoxy]-3-pyridyl]methyl]-1-methyl-pyrrolidine-2-carboxamide; Fumaric Acid] are 5 to 50 L/h/kg, less than 20 nM and greater than 70%.
The corresponding values for `COc1nc(C2=CCC(C(F)(F)F)CC2)c(F)cc1CNC(=O)[C@@H]1CCCN1` (stereo partly drawn) [Example 140, (2S)—N-[[5-Fluoro-2-methoxy-6-[4-(trifluoromethyl)cyclohexen-1-yl]-3-pyridyl]methyl]pyrrolidine-2-carboxamide] are 5 to 50 L/h/kg, less than 20 nM and greater than 70%.
The corresponding values for `COc1nc(CC2CCOCC2)c(F)cc1CNC(=O)[C@@H]1CCCN1` [Example 189, (2S)—N-[[5-Fluoro-2-methoxy-6-(tetrahydropyran-4-ylmethyl)-3-pyridyl]methyl]-pyrrolidine-2-carboxamide; 2,2,2-trifluoroacetic Acid] are less than 5 L/h/kg, 200 to 1000 nM and 50 to 70%.
For `COc1nc(OCC2(C(F)(F)F)CC2)c(F)cc1CN(C)C(=O)[C@@H]1CCCN1` [Example 76, (2S)—N-[[5-Fluoro-2-methoxy-6-[[1-(trifluoromethyl)cyclopropyl]methoxy]-3-pyridyl]methyl]-N-methyl-pyrrolidine-2-carboxamide Hydrochloride], in series [1], the CLint scaled at 0.5 μM is less than 5 L/h/kg. Moreover, at 5-HT2C receptor, the EC50 is less than 20 nM and the Emax is greater than 70%.
The corresponding values for `COc1nc(NCC2(C(F)(F)F)CC2)c(F)cc1CNC(=O)[C@@H]1CCCN1` [Example 152, (2S)—N-[[5-Fluoro-2-methoxy-6-[[1-(trifluoromethyl)cyclopropyl]methylamino]-3-pyridyl]methyl]pyrrolidine-2-carboxamide; 2,2,2-trifluoroacetic Acid] are less than 5 L/h/kg, less than 20 nM and greater than 70%.
Taken in the same sequence, the figures for `COc1nc(OC2CCC(C(F)(F)F)CC2)c(F)cc1CNC(=O)[C@@H]1C[C@H]2C[C@H]2N1` (stereo partly drawn) [Example 82, (1R,3 S,5R)—N-[[5-Fluoro-2-methoxy-6-[4-(trifluoromethyl)cyclohexoxy]-3-pyridyl]methyl]-4-azabicyclo[3.1.0]hexane-3-carboxamide] were 5 to 50 L/h/kg, 20 to 200 nM and greater than 70%.
Regarding `COc1nc(O[C@H]2CC[C@H](C(F)(F)F)CC2)c(F)cc1CNC(=O)[C@@H]1CCCN1` [Example 11, (2S)—N-[[5-Fluoro-2-methoxy-6-[trans-4-(trifluoromethyl)cyclohexoxy]-3-pyridyl]methyl]pyrrolidine-2-carboxamide; Fumaric Acid], in series [1], the CLint scaled at 0.5 μM was in the range of 5 to 50 L/h/kg. In addition, on 5-HT2C receptor, the half-maximal effective concentration (EC50) was less than 20 nM and the Emax was greater than 70%.
For `COc1nc(N2CCC(F)(F)C2)c(F)cc1CNC(=O)[C@@H]1CCCN1` [Example 164, (2S)—N-[[6-(3,3-Difluoropyrrolidin-1-yl)-5-fluoro-2-methoxy-3-pyridyl]methyl]pyrrolidine-2-carboxamide; 2,2,2-trifluoroacetic Acid], the CLint scaled at 0.5 μM in series [1] is less than 5 L/h/kg. Further, at 5-HT2C receptor, the half-maximal effective concentration (EC50) lay within 20 to 200 nM and the Emax is greater than 70%.
Taken in the same sequence, the figures for `COc1nc(N2CCc3ccccc32)c(F)cc1CNC(=O)[C@@H]1CCCN1` [Example 138, (2S)—N-[(5-Fluoro-6-indolin-1-yl-2-methoxy-3-pyridyl)methyl]pyrrolidine-2-carboxamide Hydrochloride] were 5 to 50 L/h/kg, 200 to 1000 nM and greater than 70%.
Take `COc1nc(O[C@H]2CC[C@H](F)CC2)c(F)cc1CNC(=O)[C@@H]1CCCN1C` [Example 28, (2S)—N-[[5-Fluoro-6-(trans-4-fluorocyclohexoxy)-2-methoxy-3-pyridyl]methyl]-1-methyl-pyrrolidine-2-carboxamide; Fumaric Acid]: the CLint scaled at 0.5 μM in series [1] is less than 5 L/h/kg. Besides, on 5-HT2C receptor, the concentration giving a half-maximal response (EC50) was less than 20 nM and the Emax is greater than 70%.
Take `COc1nc(OCC(F)(F)C(F)F)c(F)cc1CN(C)C(=O)[C@@H]1CCCN1C` [Example 102, (2S)—N-[[5-Fluoro-2-methoxy-6-(2,2,3,3-tetrafluoropropoxy)-3-pyridyl]methyl]-N,1-dimethyl-pyrrolidine-2-carboxamide Hydrochloride]: in series [1], the CLint scaled at 0.5 μM is less than 5 L/h/kg. Besides, at 5-HT2C receptor, the EC50 was 200 to 1000 nM and the Emax fell in the range of 50 to 70%.
Consider `COc1nc(OCC2CC(F)(F)C2)c(F)cc1CN(C)C(=O)[C@@H]1CCCN1` [Example 115, (2S)—N-[[6-[(3,3-Difluorocyclobutyl)methoxy]-5-fluoro-2-methoxy-3-pyridyl]-methyl]-N-methyl-pyrrolidine-2-carboxamide Hydrochloride], for which, in series [1], the CLint scaled at 0.5 μM is less than 5 L/h/kg. Also, on 5-HT2C receptor, the EC50 was less than 20 nM and the Emax is 50 to 70%.
As for `COc1nc(N(C)Cc2ccccc2)c(F)cc1CNC(=O)[C@@H]1CCCN1` [Example 179, (2S)—N-[[6-[N-Benzyl-N-methyl-amino]-5-fluoro-2-methoxy-3-pyridyl]methyl]-pyrrolidine-2-carboxamide; 2,2,2-trifluoroacetic Acid], the CLint scaled at 0.5 μM in series [1] fell in the range of 5 to 50 L/h/kg. On 5-HT2C receptor, the EC50 lay in the range of 200 to 1000 nM and the Emax lay in the range of 50 to 70%.

For the origin of these results see patent publication US20190062305A1, “PYRIDYL OR PYRAZINYL COMPOUNDS CARRYING A METHYL-BOUND ALPHA-AMINO ACID AMIDE GROUP” (ABBVIE DEUTSCHLAND GMBH & CO. KG, priority 2015, published 2019).
